# Laboratory results published in patent publication US7525013B2, “Soybean selection system based on AEC-resistance” (United Soybean Board, priority 2003, dated 2009).
# What was measured:
# soybean seeds = experiment: Germination of soybean seeds on AEC containing agar plates; format: in vivo
# Procedure: (§1) As a first step in the selection, different concentrations of AEC were used to see if it can kill the proliferating soybean somatic embryos as well as tobacco leaves and germinating tobacco and soybean seeds and germinating soybean somatic embryos. The effect of AEC is clearly seen in all these cases with varying concentrations. […] For proliferating soybean somatic embryo concentrations up to 1 mM AEC is needed along with 0.0075% methylated seed oil to kill them. To further confirm that AEC is acting on the above mentioned tissues, the E. coli DHDPS gene was cloned and put into the binary vector p1201 with the pea RBCs transit peptide under the CaMV 35S promoter.
# (§2) An AEC selection system for soybean seeds with precise genetic changes and model system seeds (for rapid system validation) were germinated on 2 mM and 5 mM AEC containing agar plates. On the control plates without AEC all the seeds germinated, however only ˜10% of the soybean seeds germinated on 2 mM AEC plates and none on 5 mM plates.
# (§3) To determine whether AEC can be developed as a selectable marker for soybeans the effect of different concentrations of AEC was examined on the germination of soybean seeds and matured soybean somatic embryos and on proliferating soybean somatic embryos. The effect of AEC is clearly seen in all these cases with varying concentrations. The effect of AEC was also examined as a herbicide against pigweed, foxtail and tobacco.
# tobacco seeds = experiment: Germination of tobacco seeds; format: in vivo; conditions: germinating tobacco seeds
# Procedure: as §1
# model system seeds = experiment: Germination of model system seeds on AEC containing agar plates; format: in vivo; conditions: 2 mM and 5 mM AEC agar plates
# Procedure: as §2
# [1] = system: germinating soybean somatic embryos; experiment: Germination of soybean somatic embryos; format: cell-based
# Procedure: as §1
# The effect of AEC on soybean somatic embryos were checked at two stages (1) during the germination (2) during proliferation. The AEC effect during germination was very effective with concentrations above 100 μM were enough to prevent the germination completely.
# as §3
# [2] = system: proliferating soybean somatic embryos; experiment: Killing / growth inhibition of proliferating soybean somatic embryos; format: cell-based
# Procedure: as §1
# However, selection during proliferation is always a better way as selected clones can be proliferated and the untransformed embryos can be killed in the earlier stages itself. Unfortunately concentrations up to 20 mM were not sufficient to kill most of the proliferating embryos, though some of the embryos turned yellowish and developed brown spots, but many of them continued to proliferate like controls even after two changes of the medium, once every 15 days. To find out if surfactants can help in AEC absorption during proliferation a methylated seed oil based surfactant was used. […] It was determined that a 0.005% concentration is suitable to use with AEC. […] The cultures on plates with 20 mM AEC died in 4 days indicating solid medium selection can be useful.
# (§4) Spray studies have been done using major dicot and monocot weeds, pigweed (Amaranthus retroflexus) and giant foxtail (Setaria faberi) in addition to tobacco. These experiments using 7 to 10 day old seedlings show 20 mM AEC is lethal to pigweed, foxtail and tobacco.
# [3] = system: pigweed (Amaranthus retroflexus); experiment: Herbicide spray study on pigweed; format: in vivo
# Procedure: as §4
# (§5) A major dicot and monocot weed of tobacco, pigweed (Amaranthus retroflexus) and giant foxtail (Setaria faberi) was used in addition to a model crop plant, tobacco. […] For larger plants grown in the green house 20 mM lysine and threonine or 40 mM lysine alone are needed for effective weed control. To increase uptake of these compounds, up to 0.2% Silwett (surfactant) was used. Silwett at 0.5% and above kills the plants. Silwett was not found to be a very effective surfactant. Studies with cultured cells and seedlings indicate that 100 μM levels of AEC are effective for selection.
# [4] = system: giant foxtail (Setaria faberi); experiment: Herbicide spray study on giant foxtail; format: in vivo
# Procedure: as §4, §5
# tobacco = experiment: Herbicide spray study on tobacco; format: in vivo
# Procedure: as §4, §5
# [5] = system: cultured cells and seedlings; experiment: Selection studies with cultured cells and seedlings; format: cell-based
# Procedure: as §5
# [6] = system: E. coli auxotroph AT998 rescued with modified soybean DHPS gene; experiment: Growth of E. coli auxotroph rescued with modified soybean DHPS gene on 2-AEC plates; format: cell-based; conditions: minimal media plates with 0.5 mM 2-AEC
# Text: To test if the modified soy DHDPS can become insensitive to AEC and whether 18:1 desaturases can function as a 16:1 desaturase, experiments were conduced with E. Coli auxotrophs. A DHDPS auxotroph was obtained from the E. coli genetic center that can be rescued on medium without diaminopimelic acid when transformed with lysine insensitive DHPS and not with the wild type gene. Similarly, the E. coli auxotroph (fabA/fadR mutant) was obtained which can be complimented by C14 and C16 ACP desaturases but not by stearoyl-ACP desaturases. The primers required for cloning were designated and obtained from soybean genes. A suitable E. coli expression vector was obtained to express these genes in the respective auxotrophs.
# It was shown in Arabidopsis, and populous deltoidsXpopulus tricho carpa modification of tryptophan53 (W) to Arginine53 (R) made the DHPS enzyme from these two plants insensitive to lysine concentrations up to 1 mM. E. coli auxotroph AT997 was rescued using these modified genes. This tryptophan residue is present in the consensus sequence MSWDEHI (SEQ ID NO: 6) in several plant DHPS genes (Vauterin et al.,2000). […] With our modified soybean DHPS gene we obtained similar results. We also targeted the tryptophan residue present in the consensus sequence MSWDEHI (SEQ ID NO: 6) in the soybean DHPS gene to convert it to arginine.
# DHPS enzyme of E. coli = DHPS enzyme of E. coli (Escherichia coli, UniProt P0A6L2); conditions: E. coli DHPS versus plant enzymes; cited from earlier work
# [7] = system: Clones expressing the insensitive plant DHPS enzymes (E. coli auxotroph AT997); conditions: clones expressing lysine insensitive plant DHPS; cited from earlier work
# [8] = system: larger plants grown in the green house; experiment: Weed control on larger plants grown in the green house; format: in vivo
# Procedure: as §5
# plant enzymes (DHPS) = conditions: read-out: IC50 for lysine; cited from earlier work
# [9] = target: T1, DHPS enzyme, tryptophan53 (W) to Arginine53 (R) (Arabidopsis thaliana, UniProt Q9LZX6, W116R); conditions: W53R DHPS; cited from earlier work
# T1 construct: host or cells: E. coli auxotroph AT997 (clones expressing the plant cDNA)
# [10] = system: DHPS enzyme, tryptophan53 (W) to Arginine53 (R); conditions: W53R DHPS; cited from earlier work
# T1 sequence (Q9LZX6 40-365 W116R): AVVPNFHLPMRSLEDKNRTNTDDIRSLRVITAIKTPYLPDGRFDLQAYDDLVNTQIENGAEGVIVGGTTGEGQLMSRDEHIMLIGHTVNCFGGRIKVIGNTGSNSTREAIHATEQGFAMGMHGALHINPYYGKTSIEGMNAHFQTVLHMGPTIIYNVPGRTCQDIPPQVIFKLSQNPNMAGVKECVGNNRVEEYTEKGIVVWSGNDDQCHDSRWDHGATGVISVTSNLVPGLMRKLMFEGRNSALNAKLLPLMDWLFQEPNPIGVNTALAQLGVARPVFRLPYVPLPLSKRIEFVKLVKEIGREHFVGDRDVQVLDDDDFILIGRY
# Chain of DHPS enzyme of E. coli (P0A6L2 whole entry): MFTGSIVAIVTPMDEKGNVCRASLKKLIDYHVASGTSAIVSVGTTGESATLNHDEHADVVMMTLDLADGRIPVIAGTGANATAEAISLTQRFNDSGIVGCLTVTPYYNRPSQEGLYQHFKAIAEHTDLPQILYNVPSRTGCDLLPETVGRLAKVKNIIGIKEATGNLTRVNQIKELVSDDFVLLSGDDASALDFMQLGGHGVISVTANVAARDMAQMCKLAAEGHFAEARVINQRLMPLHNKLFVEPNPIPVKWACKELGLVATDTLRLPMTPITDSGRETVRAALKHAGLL
compound,measurement,setting,value
"NCCSC[C@H](N)C(=O)O [AEC, S-2-aminoethyl-cysteine]",soybean seeds germinated,"soybean seeds; 2 mM AEC agar plates, all seeds germinated on control plates",~10%
same,effect on germination of soybean seeds,soybean seeds; 2.5 mM AEC,quite effective
same,soybean seeds germinated,soybean seeds; 5 mM AEC agar plates,none
same,inhibition of seed germination,soybean seeds; qualitative,can inhibit
same,AEC concentration required to completely inhibit germination of tobacco seeds,tobacco seeds,2.5 mM
same,model system seeds germinated,model system seeds,Not a single model system seed germinated
same,effect on germination of soybean somatic embryos,[1]; 100 μM AEC,quite effective
same,AEC concentration sufficient to completely inhibit germination of soybean somatic embryos,[1]; Example 1,100 μm
same,inhibition of soybean somatic embryos (SSE) germination,[1]; qualitative,can inhibit
same,AEC concentration needed to kill proliferating soybean somatic embryos,[2]; along with 0.0075% methylated seed oil,up to 1 mM
same,AEC concentration sufficient to kill proliferating soybean somatic embryos,"[2]; on 1/5th D20 medium (1/5 MS salts, 1/5 B5 vitamins, 20 mg/L 2,4-D)",1.5 mM
same,time until cultures died,"[2]; solid medium plates, 0.2% surfactant, 20 mM AEC",4 days
same,state of proliferating embryo cultures,"[2]; solid medium, 0.2% surfactant, 10 mM AEC, controls behaved the same",remained green with growth for two weeks before they died
same,AEC concentrations not sufficient to kill most of the proliferating embryos,"[2]; without surfactant, two changes of medium, once every 15 days",up to 20 mM
same,concentration lethal to pigweed,[3]; 7 to 10 day old seedlings,20 mM
same,concentration that effectively prevented the growth of pig weed,[3]; whole plant level,20 mM
same,concentration lethal to foxtail,[4]; 7 to 10 day old seedlings,20 mM
same,concentration sufficient to kill fox tail,[4]; whole plant level,20 mM
same,concentration lethal to tobacco,tobacco; 7 to 10 day old seedlings,20 mM
same,concentration sufficient to kill tobacco,tobacco; whole plant level,20 mM
same,AEC levels effective for selection,[5],100 µM
same,growth of rescued auxotroph,[6],grows well
same,fold less sensitive to AEC than plant enzymes,DHPS enzyme of E. coli,50 fold
same,2-AEC concentration to which clones were resistant,[7],2.5 mM
NCCCC[C@H](N)C(=O)O [lysine],concentration needed for effective weed control,[8],40 mM
same,IC50,plant enzymes (DHPS),10 µM
same,lysine concentrations to which the modified DHPS enzyme is insensitive,[9],up to 1 mM
same,lysine concentrations to which the modified DHPS enzyme is insensitive,[10],up to 1 mM
